Measured values published in US20130324597A1, “PHARMACEUTICAL COMPOSITION COMPRISING TRANS-[…] AND ITS USE IN THE TREATMENT OF INFECTIONS” (priority 2010, published 2013).

Experiments:
VIH = assay: Activity on VIH (survival of lymphoid cells T4, P24 dosage); format: cell-based; design: unit of the concentration uncertain
E. coli [1] = assay: Treatment of infected mice; format: in vivo; settings: E. coli challenge, 7 days observation; reference antibiotic, dose not given
Experimental: (§1) The test is performed on Balb/c mice aged 10 to 12 weeks.
(§2) They are infected by intraperitoneal injection of 4.10^7 Staphylococcus aureus, methicilline resistant, in a growing phase or with E. coli.

Enterobacteriaceae = assay: MIC of pure components in Mueller Hinton gelose; format: cell-based; settings: Enterobacteriaceae n = 13
Text: (§3) Following a method allowing the dissolution of the active blend in a Mueller Hinton gelose the MIC has been measured with pure components of the active blends 1 to 9.

Other Gram - rods = assay: MIC of pure components in Mueller Hinton gelose; format: cell-based; settings: Other Gram - rods n = 15
Text: as §3

[2] = tested on: Staphylococcus And Enterococcus; assay: MIC of pure components in Mueller Hinton gelose; format: cell-based; settings: Staphylococcus And Enterococcus n = 14
Text: as §3

E. coli [3] = assay: MIC in Mueller Hinton gelose; format: cell-based, Escherichia coli
Text: (§4) Following a method allowing the dissolution of the active blend in a Mueller Hinton gelose the following MIC has been measured with pure trans-cinnamaldehyde (CNM) and with the active blends 1 to 8 disclosed in table 1.
as §3

E. aerogenes = assay: MIC in Mueller Hinton gelose; format: cell-based; settings: Enterobacter aerogenes 09004
Text: as §4, §3

Pseudomonas = assay: MIC in Mueller Hinton gelose; format: cell-based
Text: as §4, §3

Staphylococcus = assay: MIC in Mueller Hinton gelose; format: cell-based
Text: as §4, §3

P. aeruginosa = assay: MIC in Mueller Hinton gelose; format: cell-based, Pseudomonas aeruginosa
Text: as §4, §3

Enterococcus = assay: MIC in Mueller Hinton gelose; format: cell-based, Enterococcus sp
Text: as §4, §3

E. faecium = assay: MIC in Mueller Hinton gelose; format: cell-based, Enterococcus faecium
Text: as §4, §3

A baumanii = assay: MIC in Mueller Hinton gelose; format: cell-based, Acinetobacter baumanii; settings: A baumanii 09010
Text: as §4, §3

All strains (60 strains) = assay: Killing-curves, log reduction time; format: cell-based; settings: at MIC × 4
Text: (§5) Results are expressed in minutes necessary to reduce bacterial counts by 1 log.

Cocci G+ = assay: Killing-curves, log reduction time; format: cell-based; settings: at MIC × 4
Text: as §5

Enterobacteria = assay: Killing-curves, log reduction time; format: cell-based; settings: at MIC × 4
Text: as §5

Other gram− = assay: Killing-curves, log reduction time; format: cell-based; settings: at MIC × 4
Text: as §5

all the strains = assay: MIC of pure components, all strains of Table 9; format: cell-based; settings: strains of Table 9, tested concentrations
Text: as §3

MRSA = settings: bibliographic data on the main compound; cited from earlier work
[4] = tested on: Staphylococcus aureus, methicilline resistant; assay: Treatment of infected mice; format: in vivo, Balb/c mice; settings: MRSA challenge, 10 days observation; reference antibiotic, dose not given
Experimental: as §1, §2

[5] = concentration 0.0005 (unit uncertain)
[6] = concentration 0.005 (unit uncertain)
[7] = concentration 0.05 (unit uncertain)
[8] = concentration 0.1 (unit uncertain)
[9] = concentration 0.5 (unit uncertain)
[10] = concentration 5 (unit uncertain)

In the case of `Cc1cn([C@H]2C[C@H](N=[N+]=[N-])[C@@H](CO)O2)c(=O)[nH]c1=O` [AZT], the “% Survival (lymphoid cells T4)” value (VIH; [5]) is reported as 10.0%, the “Dosage P24 (% inhibition vs T+ of the plate)” value (VIH; [5]) is reported as 39% and the “% Survival (lymphoid cells T4)” value (VIH; [6]) is reported as 7.0%. The “Dosage P24 (% inhibition vs T+ of the plate)” value (VIH; [6]) was 48%, the “% Survival (lymphoid cells T4)” value (VIH; [7]) was 36.0% and the “Dosage P24 (% inhibition vs T+ of the plate)” value (VIH; [7]) was 80%. The “% Survival (lymphoid cells T4)” value (VIH; [8]) was 86.0%, the “Dosage P24 (% inhibition vs T+ of the plate)” value (VIH; [8]) was 99% and the “% Survival (lymphoid cells T4)” value (VIH; [9]) was 97.8%. For the same molecule, the “Dosage P24 (% inhibition vs T+ of the plate)” value (VIH; [9]) was 100%, the “% Survival (lymphoid cells T4)” value (VIH; [10]) was 108.7% and the “Dosage P24 (% inhibition vs T+ of the plate)” value (VIH; [10]) was 100%.
In the case of `CC1(C)S[C@@H]2[C@H](NC(=O)[C@H](N)c3ccc(O)cc3)C(=O)N2[C@H]1C(=O)O` [Amoxicillin], the “% survival” value (E. coli [1]) is reported as 100%, the Final score (E. coli [1]) is reported as 6 and the “Final score, % vs placebo” value (E. coli [1]) is reported as 10.70%. For the same molecule, the Total health score (E. coli [1]) was 678, the “Total health score, % vs placebo” value (E. coli [1]) was 38.93% and the Total weight (E. coli [1]) was 849. The “Total weight, % vs placebo” value (E. coli [1]) was 23.58%.
For `O=C(OCc1ccccc1)c1ccccc1` [Benzyl benzoate, benzyl benzoate], the MIC Range (Enterobacteriaceae) was greater than 10000 µg/mL, the MIC Range (Other Gram - rods) was greater than 10000 µg/mL and the MIC Range [2] was greater than 10000 µg/mL.
For `O=C/C=C/c1ccccc1` [CNM, trans-cinnamaldehyde], the MIC (E. coli [3]; E. coli 8137) was 0.016%, the MIC (E. coli [3]; E. coli 8138) was 0.016% and the MIC (E. coli [3]; E. coli 8141) was 0.016%. The MIC (E. coli [3]; E. coli 8142) was 0.016%, the MIC (E. coli [3]; E. coli 8150) was 0.031% and the MIC (E. coli [3]; E. coli 8151) was 0.031%. It also gave an MIC (E. coli [3]; E. coli 8154) of 0.031%, an MIC (E. coli [3]; E. coli 8155) of 0.031% and an MIC (E. coli [3]; E. coli 8156) of 0.031%. It also gave an MIC (E. coli [3]; E. coli 8157) of 0.031%, an MIC (E. coli [3]; E. coli 09003) of 0.063% and an MIC (E. coli [3]; E. coli ATCC 25922) of 0.015%. The MIC (E. aerogenes) was 0.063%, the MIC (Pseudomonas; Pseudomonas 8127) was 0.063% and the MIC (Pseudomonas; Pseudomonas 8128) was 0.063%. For the same molecule, the MIC (Pseudomonas; Pseudomonas 8129*) was 0.063%, the MIC (Pseudomonas; Pseudomonas 8130*) was 0.125% and the MIC (Pseudomonas; Pseudomonas 8131*) was 0.125%. It also gave an MIC (Pseudomonas; Pseudomonas 8132*) of 0.125%, an MIC (Pseudomonas; Pseudomonas 8133) of 0.125% and an MIC (Pseudomonas; Pseudomonas 8134) of 0.016%. It also gave an MIC (Pseudomonas; Pseudomonas 8135*) of 0.03%, an MIC (Pseudomonas; Pseudomonas 8136*) of 0.016% and an MIC (Staphylococcus; Staphylococcus 8143) of 0.031%. For the same molecule, the MIC (Staphylococcus; Staphylococcus 8146) was 0.031%, the MIC (Staphylococcus; Staphylococcus 8147) was 0.031% and the MIC (Staphylococcus; Staphylococcus 8148) was 0.031%. It also gave an MIC (Staphylococcus; Staphylococcus 8149) of 0.016%, an MIC (Staphylococcus; Staphylococcus 8237) of 0.008% and an MIC (Staphylococcus; Staphylococcus 8238) of 0.031%. It also gave an MIC (Staphylococcus; Staphylococcus 8239) of 0.031%, an MIC (Staphylococcus; Staphylococcus 8240) of 0.031% and an MIC (Staphylococcus; Staphylococcus 8241) of 0.031%. It also gave an MIC (P. aeruginosa; PS aeruginosa 09007) of 0.063%, an MIC (P. aeruginosa; PS aeruginosa ATCC) of 0.031% and an MIC (P. aeruginosa; Ps aeruginosa 09008) of 0.016%. For the same molecule, the MIC (Enterococcus; Enterococcus 8152) was 0.031%, the MIC (Enterococcus; Enterococcus 8153) was 0.031% and the MIC (E. faecium; Enterococcus faecium 09001) was 0.031%. For the same molecule, the MIC (E. faecium; Enterococcus faecium 09002) was 0.031%, the MIC (A baumanii) was 0.016% and the MIC 50 (Enterobacteriaceae) was 150 µg/mL. For the same molecule, the MIC 90 (Enterobacteriaceae) was 600 µg/mL, the MIC 50 (Other Gram - rods) was 600 µg/mL and the MIC 90 (Other Gram - rods) was 1250 µg/mL. The MIC 50 [2] was 150 µg/mL, the MIC 90 [2] was 300 µg/mL and the “Mean Log reduction time” value (All strains (60 strains)) was 111 min. For the same molecule, the “Mean Log reduction time” value (Cocci G+) was 195 min, the “Mean Log reduction time” value (Enterobacteria) was 72 min and the “Mean Log reduction time” value (Other gram−) was 95 min. The “activity / spectrum in words” value (all the strains) was “highly effective on all the strains” and the “elimination, bibliographic data” value (MRSA) was 1.7 h.
For `C=C1CC/C=C(\C)CC[C@@H]2[C@@H]1CC2(C)C` [Caryophyllene, beta-caryophyllene], the MIC 50 (Enterobacteriaceae) was greater than 10000 µg/mL, the MIC 90 (Enterobacteriaceae) was greater than 10000 µg/mL and the MIC Range (Enterobacteriaceae) was greater than 10000 µg/mL. The MIC 50 (Other Gram - rods) was greater than 10000 µg/mL, the MIC 90 (Other Gram - rods) was greater than 10000 µg/mL and the MIC Range (Other Gram - rods) was greater than 10000 µg/mL. The MIC 50 [2] was greater than 10000 µg/mL, the MIC 90 [2] was greater than 10000 µg/mL and the “activity / spectrum in words” value (all the strains) was “narrow”.
With `CC12CCC(CC1)C(C)(C)O2` [Cineole, cineole] the MIC Range (Enterobacteriaceae) was greater than 10000 µg/mL, the MIC Range (Other Gram - rods) was greater than 10000 µg/mL and the MIC Range [2] was greater than 10000 µg/mL.
For `CC(=O)OCC=Cc1ccccc1` [Cinnamyl acetate, cinnamyl acetate], the MIC 50 (Enterobacteriaceae) was greater than 10000 µg/mL, the MIC 90 (Enterobacteriaceae) was greater than 10000 µg/mL and the MIC Range (Enterobacteriaceae) was greater than 10000 µg/mL. The MIC 50 (Other Gram - rods) was greater than 10000 µg/mL, the MIC 90 (Other Gram - rods) was greater than 10000 µg/mL and the MIC 50 [2] was greater than 10000 µg/mL. For the same molecule, the MIC 90 [2] was greater than 10000 µg/mL and the “activity / spectrum in words” value (all the strains) was “intermediate”.
`C=CC(C)(O)CCC=C(C)C` (centres unmarked) [Linalool, linalool] showed an MIC 50 (Enterobacteriaceae) of 2500 µg/mL, an MIC 90 (Enterobacteriaceae) of 10000 µg/mL and an MIC 50 (Other Gram - rods) greater than 10000 µg/mL. The MIC 90 (Other Gram - rods) was greater than 10000 µg/mL, the MIC 50 [2] was 2500 µg/mL and the MIC 90 [2] was 10000 µg/mL. For the same molecule, the “activity / spectrum in words” value (all the strains) was “wide”.
Work on `COc1ccccc1/C=C/C=O` [Trans-methoxycinnamaldehyde, trans-2-methoxycinnamaldehyde] yielded an MIC Range (Enterobacteriaceae) greater than 10000 µg/mL, an MIC Range (Other Gram - rods) greater than 10000 µg/mL and an MIC Range [2] greater than 10000 µg/mL.
With `CN[C@H](CC(C)C)C(=O)N[C@H]1C(=O)N[C@@H](CC(N)=O)C(=O)N[C@H]2C(=O)N[C@H]3C(=O)N[C@H](C(=O)N[C@H](C(=O)O)c4cc(O)cc(O)c4-c4cc3ccc4O)[C@H](O)c3ccc(c(Cl)c3)Oc3cc2cc(c3O[C@@H]2O[C@H](CO)[C@@H](O)[C@H](O)[C@H]2O[C@H]2C[C@](C)(N)[C@H](O)[C@H](C)O2)Oc2ccc(cc2Cl)[C@H]1O` [Vancomicin] the “% survival” value [4] was 100%, the Final score [4] was 10 and the “Final score, % vs placebo” value [4] was 42.86%. The Total weight [4] was 1110 and the “Total weight, % vs placebo” value [4] was 0.63%.
